Like-named read-outs stand apart in the source and are kept apart here.

Series [1] deals with Aβ42 and Aβtotal in the soluble fraction of brain homogenates. The series is described as follows: In vivo Aβ42 lowering: brain soluble Aβ42 and Aβtotal by ELISA after a single oral dose. On the set-up: species or system mouse. The note with it: dose 30 mg/kg oral dosing, 4 h after dosing; for response vs control in vivo at 30 mg/kg: Mus musculus, po, 4 h. The text has this:
To determine whether acute administration of an Aβ42 lowering agent would reduce Aβ42 levels in vivo, non-transgenic rodents, e.g. mice or rats were used. Animals treated with the Aβ42 lowering agent were examined and compared to those untreated or treated with vehicle and brain levels of soluble Aβ42 and total A13 were quantitated by standard techniques, for example, using ELISA. Treatment periods varied from hours (h) to days and were adjusted based on the results of the Aβ42 lowering once a time course of onset of effect could be established.
(§1) A typical protocol for measuring Aβ42 lowering in vivo is shown but it is only one of many variations that could be used to optimize the levels of detectable Aβ. For example, Aβ42 lowering compounds were formulated in 20% of Captisol® (a sulfobutyl ether of β-cyclodextrin) in water or 20% hydroxypropyl β cyclodextrin. The Aβ42 lowering agents were administered as a single oral dose or by any acceptable route of administration to overnight fasted animals. After 4 h, the animals were sacrificed and Aβ42 levels were analysed.
(§2) Blood was collected by decapitation and exsanguinations in EDTA-treated collection tubes. Blood was centrifuged at 1900 g for 10 minutes (min) at 4° C. and the plasma recovered and flash frozen for later analysis. The brain was removed from the cranium and hindbrain. The cerebellum was removed and the left and right hemisphere were separated. The left hemisphere was stored at −18° C. for quantitative analysis of test compound levels. The right hemisphere was rinsed with phosphate-buffered saline (PBS) buffer and immediately frozen on dry ice and stored at −80° C. until homogenization for biochemical assays.
Mouse brains from non-transgenic animals were resuspended in 8 volumes of 0.4% DEA (diethylamine)/50 mM NaCl containing protease inhibitors (Roche-11873580001 or 04693159001) per gram of tissue, e.g. for 0.158 g brain, add 1.264 ml of 0.4% DEA. All samples were homogenized in the FastPrep-24 system (MP Biomedicals) using lysing matrix D (MPBio #6913-100) at 6 m/s for 20 seconds. Homogenates were centrifuged at 221.300×g for 50 min. The resulting high speed supernatants were then transferred to fresh eppendorf tubes. Nine parts of supernatant were neutralized with 1 part 0.5 M Tris-HCl pH 6.8 and used to quantify Aβtotal and Aβ42.
To quantify the amount of Aβtotal and Aβ42 in the soluble fraction of the brain homogenates, Enzyme-Linked-Immunosorbent-Assays were used. Briefly, the standards (a dilution of synthetic Aβ1-40 and Aβ-42, Bachem) were prepared in 1.5 ml Eppendorf tube in Ultraculture, with final concentrations ranging from 10000 to 0.3 pg/ml. The samples and standards were co-incubated with HRPO-labelled N-terminal antibody for Aβ42 detection and with the biotinylated mid-domain antibody 4G8 for Aβtotal detection. 50 μl of conjugate/sample or conjugate/standards mixtures were then added to the antibody-coated plate (the capture antibodies selectively recognize the C-terminal end of Aβ42, antibody JRF/cAB42/26, for Aβ42 detection and the N-terminus of Aβ, antibody JRF/rAβ/2, for Aβtotal detection). The plate was allowed to incubate overnight at 4° C. in order to allow formation of the antibody-amyloid complex. Following this incubation and subsequent wash steps the ELISA for Aβ42 quantification was finished by addition of Quanta Blu fluorogenic peroxidase substrate according to the manufacturer's instructions (Pierce Corp., Rockford, Il). A reading was performed after 10 to 15 min (excitation 320 nm/emission 420 nm).
For Aβtotal detection, a Streptavidine-Peroxidase-Conjugate was added, followed 60 min later by an addional wash step and addition of Quanta Blu fluorogenic peroxidase substrate according to the manufacturer's instructions (Pierce Corp., Rockford, Il). A reading was performed after 10 to 15 min (excitation 320 nm/emission 420 nm). […]

Series [2] can be described thus: Central brain availability: compound levels in plasma and brain. It counts as in vivo. The following applies: mouse, dose 30 mg/kg oral dosing. As for the experimental part: as §1, §2
Also the central brain availability of Compounds 3, 5, 10 and A were measured:
The results are shown in Table 5 (dose 30 mg/kg oral dosing; 4 hours): […]

Series [3] is described as follows: Liver metabolic stability assay, human liver microsomes. The note with it: 1 μM substrate, 1 mg/ml protein, 37° C., 15 minutes. It counts as in vitro ADME. How it is done: (§3) Each compound was spiked into a suspension of liver microsomes prepared from the species under investigation, at a final substrate concentration of 1 μM, and a protein concentration of 1 mg/ml, and pre-incubated at 37° C. for 11 minutes. The incubation also contains a NADPH (3-nicotinamide adenine dinucleotide phosphate, reduced) regenerating system. After this preincubation period, NADP (β-nicotinamide adenine dinucleotide phosphate) was added to the active incubations, and the incubations maintained at 37° C. for 15 minutes, during which period metabolism can take place. After 15 minutes, 2 volumes of DMSO (dimethylsulfoxide) were added to each active incubation to inactivate and precipitate proteins. Control incubations were not preincubated at 37° C., but instead were quenched by the addition of DMSO prior to the addition of NADP. Following centrifugation, the supernatant from each incubation was transferred to a separate analysis plate, and analysed for the concentration of the parent compound by LC/MS/MS using a compound-specific LC/MS/MS method and a generic HPLC gradient. The turnover of the parent compound is expressed as the % reduction in concentration in the analyte samples compared to that in the control incubations. Each incubation is performed in triplicate.
Background: Liver microsomes are vesicles of endoplasmic reticulum, rich in cytochrome P450 enzymes.

Series [4] can be described thus: Liver metabolic stability assay, mouse liver microsomes. In kind it is in vitro ADME. The note with it: 1 μM substrate, 1 mg/ml protein, 37° C., 15 minutes. How it is done:
as §3

Setting [5] is: untreated animals (Ctrl) set at 100, read-out: Aβ42 (% vs Ctrl) _Mean.
The mark [6] stands for this setting: untreated animals (Ctrl) set at 100, read-out: Aβtotal (% vs Ctrl)_Mean.
The mark [7] stands for this setting: untreated animals (Ctrl) set at 100, 30 mg/kg.

Regarding `COc1cc(Nc2nc(N3CCCC(C(F)(F)F)C3)n(C(C)C)n2)ccc1-n1cnc(C)n1` (racemic) [Compound 59], the melting point (commonly the temperature of the solid-liquid transition) amounted to 134 °C. The response vs control in vivo at 30 mg/kg in series [1] (setting [5]) was 69%. Also, in series [1] (setting [6]), the response vs control in vivo at 30 mg/kg was 94%.

On to `COc1cc(Nc2nc(N3CCCC(C(F)(F)F)C3)n(C(C)C)n2)ccc1-n1cnc(C)n1` (single isomer, unassigned) [Compound 108], for which the melting point amounted to 141.6 °C. In addition, the response vs control in vivo at 30 mg/kg in series [1] (setting [5]) amounted to 70%. In addition, the “Aβtotal (% vs Ctrl)_Mean” value in series [1] (setting [7]) is given as 94 % vs Ctrl.

Consider `COc1cc(Nc2nc(N3CCCC(C(F)(F)F)C3)n(C(C)C)n2)ccc1-n1cnc(C)n1` (single isomer, unassigned) [Compound 109], for which the melting point was 140.1 °C. Further, in series [1] (setting [7]), the “Aβ42 (% vs Ctrl) _Mean” value is given as 85 % vs Ctrl and the “Aβtotal (% vs Ctrl)_Mean” value came to 117 % vs Ctrl.

On to `COc1cc(Nc2nc(Oc3ccccc3Cl)n(C(C)C)n2)ccc1-n1cnc(C)n1` [Compound 3], for which the concentration at 4 h in series [2] (brain, read-out: Brain) stood at 8510 ng/g; in series [2] (plasma, read-out: Plasma), 7740 ng/mL.

As to `COc1cc(Nc2nc(Oc3cccc(C(F)(F)F)c3)n(C(C)C)n2)ccc1-n1cnc(C)n1` [Compound 5], the melting point amounted to 166.6 °C. In addition, the concentration at 4 h in series [2] (brain, read-out: Brain) came to 1630 ng/g. Moreover, the concentration at 4 h in series [2] (plasma, read-out: Plasma) turned out to be 1630 ng/mL.

In turn, `COc1cc(Nc2nc(-c3ccc(F)cc3)n(C)n2)ccc1-n1cnc(C)c1` [Compound 10] registered a melting point of 247.1 °C. Also, the response vs control in vivo at 30 mg/kg in series [1] (setting [5]) is 68%. For the same compound, the response vs control in vivo at 30 mg/kg in series [1] (setting [6]) is 110%. Moreover, the concentration at 4 h in series [2] (brain, read-out: Brain) was 4640 ng/g. For the same compound, the concentration at 4 h in series [2] (plasma, read-out: Plasma) came out at 2700 ng/mL. The “turnover of the parent compound (% reduction in concentration vs control incubations), human liver microsomes” value in series [3] was 14%. Besides, in series [4], the “turnover of the parent compound (% reduction in concentration vs control incubations), mouse liver microsomes” value came out at 10%.

Take `COc1cc(Nc2nc(-c3cccc(C(F)(F)F)c3)n(C(C)C)n2)ccc1-n1cnc(C)c1` [Compound 46]: the melting point was found to be 186.8 °C. For the same compound, the response vs control in vivo at 30 mg/kg in series [1] (setting [5]) came out at 61%. Further, the response vs control in vivo at 30 mg/kg in series [1] (setting [6]) worked out at 98%.

Consider `COc1cc(Nc2nc(Oc3ccccc3Cl)n(C(C)C)n2)ccc1-n1cnc(C)c1` [Compound 52], for which the melting point was determined as 167.1 °C. The response vs control in vivo at 30 mg/kg in series [1] (setting [5]) came out at 45%. Also, in series [1] (setting [6]), the response vs control in vivo at 30 mg/kg was determined as 112%.

Turning to `COc1cc(Nc2nc(N3CCCC(C(F)(F)F)C3)n(C(C)C)n2)ccc1-n1cnc(C)c1` (stereo not drawn) [Compound 54], the melting point is 173 °C. Further, in series [1] (setting [5]), the response vs control in vivo at 30 mg/kg turned out to be 46%. Moreover, the response vs control in vivo at 30 mg/kg in series [1] (setting [6]) amounted to 88%.

For `COc1cc(Nc2nc(N3CCOC(c4cccc(C)c4)C3)n(C(C)C)n2)ccc1-n1cnc(C)c1` (stereo not drawn) [Compound 58], the response vs control in vivo at 30 mg/kg in series [1] (setting [5]) was determined as 88%; in series [1] (setting [6]) it was 89%.

Consider `COc1cc(Nc2nc(N3CCCC(C(F)(F)F)C3)n(C(C)C)n2)ccc1-c1ccnc(C)c1` (stereo not drawn) [Compound 67], for which the response vs control in vivo at 30 mg/kg in series [1] (setting [5]) worked out at 60%; in series [1] (setting [6]) it was 89%.

`COc1cc(Nc2nc(Oc3ccccc3Cl)n(C(C)C)n2)ccc1-c1ccnc(C)c1` [Compound 69]: the response vs control in vivo at 30 mg/kg was determined as 63% in series [1] (setting [5]) and 97% in series [1] (setting [6]).

Turning to `Cc1cc(-c2ccc(Nc3nc(N4CCOC(C(F)(F)F)C4)n(C(C)C)n3)cc2)ccn1` (stereo not drawn) [Compound 133], the response vs control in vivo at 30 mg/kg in series [1] (setting [5]) was determined as 67%; in series [1] (setting [6]), 94%.

`Cc1cc(-c2ccc(Nc3nc(Oc4ccccc4Cl)n(C(C)C)n3)cc2)ccn1` [Compound 140] displayed a melting point of 142.5 °C. Moreover, the response vs control in vivo at 30 mg/kg in series [1] (setting [5]) amounted to 83%. Besides, the response vs control in vivo at 30 mg/kg in series [1] (setting [6]) was 86%.

As for `Cc1cc(-c2ccc(Nc3nc(Oc4ccccc4Cl)n(C(C)C)n3)cc2F)ccn1` [Compound 141], the values for the response vs control in vivo at 30 mg/kg in series [1] (setting [5]) and in series [1] (setting [6]) were 78% and 98%, respectively.

Regarding `COc1cc(Nc2nc(Oc3c(F)cccc3Cl)n(C(C)C)n2)ccc1-c1ccnc(C)c1` [Compound 160], the values for the response vs control in vivo at 30 mg/kg in series [1] (setting [5]) and in series [1] (setting [6]) were 77% and 83%, respectively.

For `COc1cc(Nc2nnc(-c3ccc(F)cc3)[nH]2)ccc1-n1cnc(C)c1` [Compound A, reference compound], the response vs control in vivo at 30 mg/kg in series [1] (setting [5]) was determined as 101%; in series [1] (setting [6]), 106%. The concentration at 4 h in series [2] (brain, read-out: Brain) stood at 0 ng/g; in series [2] (plasma, read-out: Plasma) it was 0 ng/mL. In addition, the “turnover of the parent compound (% reduction in concentration vs control incubations), human liver microsomes” value in series [3] was 64%. The “turnover of the parent compound (% reduction in concentration vs control incubations), mouse liver microsomes” value in series [4] was 22%.

The values are drawn from US9079886B2, “Substituted triazole derivatives as gamma secretase modulators” (Janssen Pharmaceuticals, Inc., priority 2010, dated 2015).
